Consider two substances from patent US20100239556A1, “PROMOTING ECM PRODUCTION BY FIBROBLAST CELLS AND/OR PROMOTING MIGRATION OF FIBROBLAST CELLS IN A BIOLOGICAL SYSTEM” (TGR BioScience Pty Ltd., priority 2006, published 2010).

Common to all, as to type: cell-based, human
In assay [1] the test system is HFF cells. The assay is described as follows: Collagen I production in the presence of dexamethasone. The procedure:
Primary human foreskin fibroblast cells (HFF) were seeded into 96 well plates at a density of 1.2×10^4 cells/well and cultured overnight in 10% fetal bovine serum/Dulbecco's minimum essential media (10% FBS/DMEM) at 37° C. and 5% CO2. The cells were then starved overnight in serum free DMEM and triplicate wells treated for six hours with a range of doses of proteins with peroxidase activity; horse radish peroxidase (HRP; 0.2-50 ug/ml), Arthromyces ramosus peroxidase (ARP; 0.2-50 ug/ml), microperoxidase (MP; 8-500 ug/ml), soy bean peroxidase (SBP; 0.2-100 ug/ml) and lactoperoxidase (LP; 10-310 ug/ml) (all obtained from Sigma-Aldrich). At the end of the six hour treatment period, the media was aspirated and replaced with fresh serum free DMEM and the cells cultured for a further 72 hours. After 72 hours the culture media was collected for assessment of secreted, soluble collagen types I, III and VI as well as fibronectin protein and the cells assessed for viability/growth using an alamar blue fluorescent dye assay. This assay measures the reduction of oxidized, blue nonfluorescent Alamar Blue reagent to a pink fluorescent dye in the cell medium, such that the higher the amount of reduction, the greater the cell number and/or activity (O'Brien Eur J Biochem 267 2000). Briefly, cells were bathed in a 10% Alamar Blue/phosphate-buffered saline (PBS) solution for 30-60 minutes and fluorescence measured at wavelengths of 485 nm excitation and 595 nm emission using a Wallac Victor Multilabel HTS counter. Relative fluorescent units (RFU) for each sample were normalized to control wells (DMEM only treated cells) and data expressed as mean±standard error of the mean (sem) for triplicate wells. Experiments were repeated at least three times with the combined data from all experiments shown.
The amount of soluble collagen types I, III, and VI in HFF conditioned media was measured by a direct coat ELISA method using standard curves constructed from purified human collagen I, III or VI (extracted from human placenta; col I, BD Biosciences; col III and VI, Rocklands Immunochemicals) and fibronectin (extracted from human plasma, Chemicon). Samples and standards (20 μl/well) were added to a 384 well spectraplate (Packard BioScience) and left at room temperature (RT) overnight. […] After a final wash (6×PBS-T), enhancement solution was added for at least 10 minutes and fluorescence measured at excitation 340 nm and emission 615 nm using a Wallac Victor Multilabel HTS counter. The respective ECM concentration of each sample was determined from the standard curve (μg/ml) and normalized to control wells (DMEM only treated cells) with the mean±sem for triplicate wells calculated. […]

In assay [2] the test system is HFF cells. The assay is described as follows: Soluble collagen I secreted by fibroblast-populated INTEGRA (ELISA). The conditions noted are these: SBP 12.5 μg/ml for 24 hours, ELISA after 72 hours. On the procedure: Additional experiments were performed to determine if fibroblast cells populating a three-dimensional framework or scaffold could be stimulated to secrete soluble collagen I into the media bathing the three-dimensional framework or scaffold. For these experiments, HFF cells were seeded onto the INTEGRA® and allowed to populate the scaffold for two weeks under normal culture conditions (10% FCS supplementation). The populated scaffold was then stimulated with a protein having peroxidase activity by immersing it in basal media (DMEM) containing SBP (12.5 μg/ml) for 24 hours. The INTEGRA® was then placed into fresh DMEM and the collagen-I content of the media measured by ELISA after 72 hours.
In general terms: In an ELISA, binding on a coated surface is turned into a signal by an enzyme label.

Assay [3] deals with HFF cells. The assay can be described thus: Collagen I in PuraMatrix Peptide Hydrogel (western blot). The conditions noted are these: one week. The procedure: Additional experiments were also performed to ensure the effects observed using the INTEGRA® as a three-dimensional framework or scaffold were not limited to a bovine collagen/glycosaminoglycan structure and could be achieved in synthetically derived matrices. For these experiments a PuraMatrix™ Peptide Hydrogel was used. The PuraMatrix Peptide Hydrogel is a synthetic matrix that self assembles into a three-dimensional hydrogel (1% w/v amino acids: 99% water) under physiological conditions with a nanometer scale fibrous structure and an average pore size of 50-200 nm. For these experiments, HFF cells were suspended in a 20% sucrose solution, with or without proteins having peroxidase activity, and added 1:1 to neat (1%) PuraMatrix hydrogel and carefully pipette mixed, so as not to create bubbles. Each cell/gel mix was plated in 24 well plates and allowed to partially set at room temperature for 5 min. Next, DMEM supplemented with either 10, 5 or 2% FCS was very slowly overlayed in a dropwise fashion down the edge of the well so as not to disrupt the gel. Plates were placed in a 37° C. incubator for the mix to completely solidify, and the media was changed twice over 1 hr to equilibrate the gel to pH 7.4. The encapsulated hydrogel was incubated for one week, the bathing culture media removed and RIPA buffer added to the gel for total protein extraction. […]

Take Arthromyces ramosus peroxidase [ARP]: in assay [1] (3.1-25 μg/ml, no dexamethasone), the “increase in collagen I levels” value is given as 4.5-7 fold. For the same substance, the “collagen accumulation in cells treated with both dexamethasone and ARP” value in assay [1] (dexamethasone 20 μM) was “significant levels of collagen accumulation were still evident”.
Turning to soy bean peroxidase [SBP], the “increase in collagen I secreted into the media bathing the scaffold” value in assay [2] is recorded as 2-3 fold. Besides, the results for the “collagen I produced in the Hydrogel matrix” value in assay [3] (SBP 25 μg/ml in 10% FCS versus 10% FCS alone) and in assay [3] (SBP in 2 or 5% FCS) were “produced more collagen I” and “relatively more collagen I was produced”, respectively.
